From patent US10273313B2, “Multimeric mannosides, a process for preparing the same and their uses as a drug” (CENTRE NATIONAL DE LA RECHERCHE SCIENTIFIQUE, priority 2012, dated 2019)
≈ marks a conversion by molar mass, not a printed value.

Experiments:
FimH = FimH (Escherichia coli, UniProt P08191); assay type: binding
Experimental: Journal of the American Society for Mass Spectrometry, 2009. […] Tested compounds were added to wells following with FimH treatment.
Plates were coated with 100 μl of 10 mg/ml solution of RNAse-B in 100 mM carbonate/bicarbonate buffer pH 9.6. […] 2 h. Then washed three times with 10 mM PBS containing 0.05% Tween-20. […] Wells were washed three times with 10 mM PBS+0.05% Tween-20. 100 μl of anti-body conjugated to horseradish peroxidase (1:5000) was added in buffer and incubated for 1 h at room temperature. Then washed three times with 10 mM PBS+0.05% Tween-20. Added 100 μl of TMB and incubated in dark for 2-5 min. The reaction was stopped with 100 μl/well 1N sulfuric acid. Plate absorbance was analyzed at 450 nm using microplate reader.

[1] = tested on: AIEC LF82 bacteria adhesion to T84 intestinal epithelial cells; assay: Adhesion assay on T84 cells, pre-, co- and post-incubation protocols (Example 21.2); assay type: cell-based, Escherichia coli; conditions: for Concentration leading to decreased adhesion levels of at least 50%: pre-incubation assay
Experimental: E. coli strain LF82 was isolated from a chronic ileal lesion of a patient with Crohn's disease (CD). Bacteria were grown routinely in Luria-Bertani (LB) broth overnight at 37° C. Intestinal epithelial cells T84 derived from colonic adenocarcinoma were maintained in an atmosphere containing 5% CO2 at 37° C. in DMEM/F12 (50/50) medium supplemented with 10% (v/v) heat-inactivated fetal calf serum (FCS), 1% L-glutamine, 100 000 U·l^−1 penicillin, 100 mg·l^−1 streptomycin, 25 μg·l^−1 amphotericin B.
T84 were seeded in 48-well plates at a concentration of 1.5×10^5 cells per well and grown for 48 h. AIEC LF82 bacteria were incubated 1 h with each mannoside prior the cell infection (pre-incubation protocol) or they were added simultaneously onto the cells (co-incubation protocol) in complete medium without antibiotics, containing heat inactivated fetal calf serum (FCS). Heptyl-mannose or compound 2 (example 1) were tested at a dose of 100; 10; 1 or 0.1 μM. D-D-mannose was tested at a dose of 10 000; 1 000; 100 or 10 μM and compound 1 (example 2bis) was tested at a concentration of 500; 100; 10 or 1 μM. Cells were infected with AIEC LF82 bacteria at a multiplicity of infection (MOI) of 10 bacteria per cell for 3 h at 37° C. For the post-incubation protocol, mannosides were incubated with cells for 3 h after bacterial infection. A washing step was realized before this post-incubation to eliminate non-adherent bacteria. Monolayers were washed in phosphate-buffered saline (PBS; pH 7.2) and cells were then lysed with 1% Triton X-100 in deionized water. Samples were diluted and plated onto Luria Bertani agar plates to determine the number of colony-forming units (CFU) recovered from the lysed monolayers. Results were expressed as percentages of residual adhesion, considering adhesion level of AIEC LF82 without mannoside treatment as 100%.

[2] = tested on: primary human peripheral venous blood monocyte-derived macrophages; assay: Macrophage-mediated phagocytosis of aged PMN cells; assay type: cell-based; conditions: 10 nM
Description: To estimate the influence of mannose-based inhibitors on possible inhibition of phagocytosis we used primary human peripheral venous blood monocyte-derived macrophages and estimated their ability to phagocyte autologous and allogenic human blood-derived PMN cells, as described by us previous (Bilyy, R. O. et al. (2012) J Biol Chem 287, 496-503).
Primary human PMN and MoMa from healthy volunteers were used. Monocytes were isolated from peripheral blood by LymphoPrep® gradient according to manufacture's recommendations for isolation of PBMC fraction. Plastic-attached cells of PBMC fraction were then cultured for 7 days in the presence of GM-CSF (100 U/ml) and autologous serum (added at days 1, 3 and 5) to generate MoMa. After 7 days of differentiation, the MoMa population was tested. They typically contain >95% CD11b+ cells, >90% CD14+ cells and >85% CD89+ cells. Phagocytosis was assessed by pre-incubation of PMN (freshly isolated or aged for 24 h) with mannose-based inhibitor for 30 min at 37° C. at Ringer buffer. Cells were thoroughly washed three times with Ringer solution and incubated with human MoMa for 2 hours. Uningested PMN were analyzed by flow cytometry (for this reason cells were pre-stained with CFSE (Rodel, F. et al. (2005) Strahlentherapie and Onkologie: Organ der Deutschen Rontgengesellschaft . . . [et al] 181, 456-462)) or in the hemocytometric chamber using Zeiss AxioImager A1 microscope. The percentage of prey cells that had been bound to or taken up by MoMa (% of phagocytosis) was calculated.

bladder cell line 5637 = assay: Anti-adhesives for bacterial bladder cell binding; assay type: cell-based; conditions: ten-fold dilution series
Experimental: The anti-adhesive capacities of the HM-derivatized cyclodextrins 1-4 were tested in vitro on the bladder cell line 5637, in a procedure analogous as previously described (Wellens, A. et al., PLoS ONE 3: e2040 (2008)). The CD conjugates 1-4 were diluted in a ten-fold series. The minimum inhibitory concentrations (MIC) indicate the concentrations of sugars at which we see some inhibition of binding of FimH to the bladder cells, they do however not indicate complete inhibition. MIC values for the CD-conjugates 1-4 followed a similar trend as the inhibitory concentrations recorded in HIA.
The anti-adhesive capacities of the n-heptyl α-D-mannoside-derivatized cyclodextrins 1-4 were tested in vitro on the bladder cell line 5637, in a procedure analogous to as described in (Wellens, A. et al., PLoS ONE 3: e2040 (2008)). The ligands have been diluted 10-fold and this is also the resolution limit of these tests.

Chain of FimH (P08191 22-300): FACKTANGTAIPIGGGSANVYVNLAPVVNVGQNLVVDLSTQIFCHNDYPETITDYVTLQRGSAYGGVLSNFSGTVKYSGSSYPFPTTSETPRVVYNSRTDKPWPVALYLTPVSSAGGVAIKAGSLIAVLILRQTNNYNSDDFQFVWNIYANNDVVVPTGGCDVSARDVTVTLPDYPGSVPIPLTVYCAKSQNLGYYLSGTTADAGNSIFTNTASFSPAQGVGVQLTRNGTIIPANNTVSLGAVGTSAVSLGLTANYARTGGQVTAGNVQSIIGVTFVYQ

| Compound | Inhibition of oligomannoside binding (FIG. 17) (FimH; compounds 1, 2, 6 and HM compared) | Adhesion in the post-incubation protocol ([1]; post-incubation, 10 μM) | Concentration leading to decreased adhesion levels of at least 50% [1] | Phagocytosis rate [2] | MIC, anti-adhesive potency on bladder cell line 5637 (bladder cell line 5637) | Inhibition of FimH binding compared to FimH alone (FimH; 5 nM) | Stability of activity in dissolved form (FimH; HM after 1 month storage in dissolved form vs immediately dissolved) |
| --- | --- | --- | --- | --- | --- | --- | --- |
| OCC1OC(OCCCCCCCOCc2cn(CC3OC4OC5C(Cn6cc(COCCCCCCCOC7OC(CO)C(O)C(O)C7O)nn6)OC(OC6C(Cn7cc(COCCCCCCCOC8OC(CO)C(O)C(O)C8O)nn7)OC(OC7C(Cn8cc(COCCCCCCCOC9OC(CO)C(O)C(O)C9O)nn8)OC(OC8C(Cn9cc(COCCCCCCCOC%10OC(CO)C(O)C(O)C%10O)nn9)OC(OC9C(Cn%10cc(COCCCCCCCOC%11OC(CO)C(O)C(O)C%11O)nn%10)OC(OC%10C(Cn%11cc(COCCCCCCCOC%12OC(CO)C(O)C(O)C%12O)nn%11)OC(OC3C(O)C4O)C(O)C%10O)C(O)C9O)C(O)C8O)C(O)C7O)C(O)C6O)C(O)C5O)nn2)C(O)C(O)C1O (stereo not shown) [Compound 2] | most potent inhibition | significant decreased adhesion | 0.1 µM | no phagocytosis decrease | 400 nM (≈ 1.45 µg/mL) | – | – |
| CCCCCCCO[C@H]1O[C@H](CO)[C@@H](O)[C@H](O)[C@@H]1O [HM, Heptylmannoside, reference compound] | – | – | 10 µM | significantly decreased phagocytosis rate | 4000 nM (≈ 1.11 µg/mL) | significantly inhibited FimH binding | loosing activity in dissolved form |
